Like-named read-outs stand apart in the source and are kept apart here.
What was measured:
[1] = tested on: Key Broadleaf Weed and Crop Species; assay: Post-emergent Test II herbicidal activity (Table 5); assay type: in vivo; conditions: post-emergence, 336 h, 14 days after application; for pest or weed control at 70 g/ha: application rate 70 g ai/ha; for pest or weed control at 140 g/ha: application rate 140 g ai/ha
In short: (§1)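 Spray rates: a highest rate plus ½×, ¼×, ⅛×, 1/16×, all delivered at 187 L/ha to plants at the first–second true leaf stage. Readout is a visual percent injury score at 14 d, where 100 means complete kill.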

[2] = tested on: Key Grass and Sedge Weeds as well as Grass Crops; assay: Post-emergent Test II herbicidal activity (Table 6); assay type: in vivo; conditions: post-emergence, 336 h; for pest or weed control at 70 g/ha: 70 g ai/ha; for pest or weed control at 140 g/ha: 140 g ai/ha
In short: as §1

[3] = ABUTH: velvetleaf (Abutilon theophrasti), read-out: Visual Growth Reduction (%) 14 Days After Application, ABUTH
[4] = AMARE: redroot pigweed (Amaranthus retroflexus), read-out: Visual Growth Reduction (%) 14 Days After Application, AMARE
[5] = BRSNN: oilseed-rape, canola (Brassica napus), read-out: Visual Growth Reduction (%) 14 Days After Application, BRSNN
[6] = CHEAL: lambsquarters (Chenopodium album), read-out: Visual Growth Reduction (%) 14 Days After Application, CHEAL
[7] = EPHHL: wild poinsettia (Euphorbia heterophylla), read-out: Visual Growth Reduction (%) 14 Days After Application, EPHHL
[8] = HELAN: sunflower (Helianthus annuus), read-out: Visual Growth Reduction (%) 14 Days After Application, HELAN
[9] = VIOTR: wild pansy (Viola tricolor), read-out: Visual Growth Reduction (%) 14 Days After Application, VIOTR
[10] = CYPES: yellow nutsedge (Cyperus esculentus), read-out: Visual Growth Reduction (%) 14 Days After Application, CYPES
[11] = DIGSA: crabgrass (Digitaria sanguinalis), read-out: Visual Growth Reduction (%) 14 Days After Application, DIGSA
[12] = ECHCG: barnyardgrass (Echinochloa crus-galli), read-out: Visual Growth Reduction (%) 14 Days After Application, ECHCG
[13] = ORYSA: rice (Oryza sativa), crop, read-out: Visual Growth Reduction (%) 14 Days After Application, ORYSA
[14] = SETFA: giant foxtail (Setaria faberi), read-out: Visual Growth Reduction (%) 14 Days After Application, SETFA
[15] = SORVU: grain sorghum (Sorghum vulgare), read-out: Visual Growth Reduction (%) 14 Days After Application, SORVU
[16] = TRZSS (wheat, Triticum aestivum), crop, read-out: Visual Growth Reduction (%) 14 Days After Application, TRZSS
[17] = ZEAMX: maize, corn (Zea mays), crop, read-out: Visual Growth Reduction (%) 14 Days After Application, ZEAMX

| Structure (SMILES) | pest or weed control at 70 g/ha [1, 3] | pest or weed control at 140 g/ha [1, 3] | pest or weed control at 70 g/ha [1, 4] | pest or weed control at 140 g/ha [1, 4] | pest or weed control at 70 g/ha [1, 5] | pest or weed control at 140 g/ha [1, 5] | pest or weed control at 70 g/ha [1, 6] | pest or weed control at 140 g/ha [1, 6] | pest or weed control at 70 g/ha [1, 7] | pest or weed control at 140 g/ha [1, 7] | pest or weed control at 70 g/ha [1, 8] | pest or weed control at 140 g/ha [1, 8] | pest or weed control at 70 g/ha [1, 9] | pest or weed control at 140 g/ha [1, 9] | pest or weed control at 70 g/ha [2, 10] | pest or weed control at 140 g/ha [2, 10] | pest or weed control at 70 g/ha [2, 11] | pest or weed control at 140 g/ha [2, 11] | pest or weed control at 70 g/ha [2, 12] | pest or weed control at 140 g/ha [2, 12] | also measured |
| --- | --- | --- | --- | --- | --- | --- | --- | --- | --- | --- | --- | --- | --- | --- | --- | --- | --- | --- | --- | --- | --- |
| COC(=O)c1nc(-c2ccc(Br)c(F)c2F)nc(N)c1OC [Compound 122, methyl 6-amino-2-(4-bromo-2,3-difluorophenyl)-5-methoxypyrimidine-4-carboxylate] | 95 to 100% | 95 to 100% | 95 to 100% | 95 to 100% | 95 to 100% | 95 to 100% | 95 to 100% | 95 to 100% | 95 to 100% | 95 to 100% | 85 to 94% | 95 to 100% | 95 to 100% | 85 to 94% | 95 to 100% | 95 to 100% | 45 to 59% | 45 to 59% | 85 to 94% | 95 to 100% | pest or weed control at 70 g/ha [2, 13]: 0 to 29%; pest or weed control at 140 g/ha [2, 13]: 0 to 29%; pest or weed control at 140 g/ha [2, 14]: 95 to 100%; pest or weed control at 70 g/ha [2, 15]: 95 to 100%; pest or weed control at 140 g/ha [2, 15]: 85 to 94%; pest or weed control at 70 g/ha [2, 16]: 45 to 59%; pest or weed control at 140 g/ha [2, 16]: 45 to 59%; pest or weed control at 70 g/ha [2, 17]: 95 to 100%; pest or weed control at 140 g/ha [2, 17]: 95 to 100%; melting point: 171 to 172 °C |
| COC(=O)c1nc(-c2ccc(F)cc2)c(F)c(N)c1Cl [Compound 204] | 95 to 100% | 95 to 100% | 95 to 100% | 95 to 100% | 85 to 94% | 95 to 100% | 95 to 100% | 95 to 100% | 95 to 100% | 95 to 100% | 95 to 100% | 95 to 100% | 75 to 84% | 95 to 100% | 85 to 94% | 85 to 94% | 60 to 74% | 60 to 74% | 95 to 100% | 95 to 100% | pest or weed control at 70 g/ha [2, 13]: 0 to 29%; pest or weed control at 140 g/ha [2, 13]: 0 to 29%; pest or weed control at 70 g/ha [2, 14]: 0 to 29%; pest or weed control at 140 g/ha [2, 14]: 45 to 59%; pest or weed control at 70 g/ha [2, 15]: 75 to 84%; pest or weed control at 140 g/ha [2, 15]: 85 to 94%; pest or weed control at 70 g/ha [2, 16]: 45 to 59%; pest or weed control at 140 g/ha [2, 16]: 60 to 74%; pest or weed control at 70 g/ha [2, 17]: 75 to 84%; pest or weed control at 140 g/ha [2, 17]: 75 to 84%; melting point: 131 °C |
| C#Cc1ccc(-c2nc(C(=O)OC)c(Cl)c(N)c2F)c(F)c1F [Compound 22] | 0 to 29% | 0 to 29% | 0 to 29% | 0 to 29% | 0 to 29% | 60 to 74% | 45 to 59% | 75 to 84% | 0 to 29% | 95 to 100% | 45 to 59% | 75 to 84% | 0 to 29% | 0 to 29% | 0 to 29% | 0 to 29% | 0 to 29% | 0 to 29% | 0 to 29% | 45 to 59% | pest or weed control at 70 g/ha [2, 13]: 0 to 29%; pest or weed control at 140 g/ha [2, 13]: 0 to 29%; pest or weed control at 70 g/ha [2, 14]: 0 to 29%; pest or weed control at 140 g/ha [2, 14]: 0 to 29%; pest or weed control at 70 g/ha [2, 15]: 0 to 29%; pest or weed control at 140 g/ha [2, 15]: 0 to 29%; pest or weed control at 70 g/ha [2, 16]: 0 to 29%; pest or weed control at 140 g/ha [2, 16]: 0 to 29%; pest or weed control at 70 g/ha [2, 17]: 0 to 29%; pest or weed control at 140 g/ha [2, 17]: 45 to 59%; melting point: 190 to 192 °C |

From patent publication US9113629B2, “4-amino-6-(4-substituted-phenyl)-picolinates and 6-amino-2-(4-substituted-phenyl)-pyrimidine-4-carboxylates and their use as herbicides” (DOW AGROSCIENCES LLC, priority 2013, dated 2015)
